From ChEMBL document CHEMBL1201862, “PubChem BioAssay data set” (2004)
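The compound was tested at five concentrations on cells cultured in 96-well plates, with a 48-hour exposure period. Here, GI50 denotes the concentration required for 50% inhibition of growth.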 Active and inactive are the calls of the source. No stated cut-off is given here; in the data, active = GI50 up to about 1.1 µM and inactive = higher.

What was measured:
Experiment in all cases: NCI-60 cell line screen, 48 h
PC-3 = test system: PC-3
NCI-H522 = test system: NCI-H522
CCRF-CEM = test system: CCRF-CEM
UACC-257 = test system: UACC-257
NCI-H23 = test system: NCI-H23
M14 = test system: M14
MDA-MB-435 = test system: MDA-MB-435
HL-60 = test system: HL-60
SNB-75 = test system: SNB-75
RPMI-8226 = test system: RPMI-8226
SK-OV-3 = test system: SK-OV-3
NCI/ADR-RES = test system: NCI/ADR-RES
A549 = test system: A549
BT-549 = test system: BT-549
SK-MEL-28 = test system: SK-MEL-28
SF-268 = test system: SF-268
UACC-62 = test system: UACC-62
LOX IMVI = test system: LOX IMVI
SR = test system: SR

Structure (SMILES) | GI50 (PC-3) | GI50 (NCI-H522) | GI50 (CCRF-CEM) | GI50 (UACC-257) | GI50 (NCI-H23) | GI50 (M14) | GI50 (MDA-MB-435) | GI50 (HL-60) | GI50 (SNB-75) | GI50 (RPMI-8226) | GI50 (SK-OV-3) | GI50 (NCI/ADR-RES) | GI50 (A549) | GI50 (BT-549) | GI50 (SK-MEL-28) | GI50 (SF-268) | GI50 (UACC-62) | GI50 (LOX IMVI) | GI50 (SR)
CC(C)(C)c1ccc(OCC(=O)O)c(Cl)c1 | > 100 µM (inactive) | > 100 µM (inactive) | > 100 µM (inactive) | > 100 µM (inactive) | > 100 µM (inactive) | > 100 µM (inactive) | > 100 µM (inactive) | > 100 µM (inactive) | > 100 µM (inactive) | > 100 µM (inactive) | > 100 µM (inactive) | > 100 µM (inactive) | > 100 µM (inactive) | > 100 µM (inactive) | > 100 µM (inactive) | > 100 µM (inactive) | > 100 µM (inactive) | > 100 µM (inactive) | 
CN(C(=O)Cc1ccccc1)n1cn[n+](CC(=O)OC(C)(C)C)c1 | > 10 µM (inactive) | > 10 µM (inactive) | > 10 µM (inactive) | > 10 µM (inactive) | > 10 µM (inactive) | > 10 µM (inactive) | > 10 µM (inactive) |  |  | 0.00119 µM (active) | > 10 µM (inactive) | > 10 µM (inactive) | > 10 µM (inactive) | > 10 µM (inactive) | > 10 µM (inactive) | > 10 µM (inactive) | > 10 µM (inactive) | > 10 µM (inactive) | > 10 µM (inactive)
N#CCc1nc(-c2ccccc2)n[nH]1 | > 100 µM (inactive) | > 100 µM (inactive) | > 100 µM (inactive) | > 100 µM (inactive) | > 100 µM (inactive) | > 100 µM (inactive) | > 100 µM (inactive) | > 100 µM (inactive) | > 100 µM (inactive) |  | > 100 µM (inactive) | > 100 µM (inactive) | > 100 µM (inactive) | > 100 µM (inactive) |  | > 100 µM (inactive) | > 100 µM (inactive) | > 100 µM (inactive) | > 100 µM (inactive)
Clc1cccc(/C=c2\nc(-c3ccccc3)n3c2nc2ccccc23)c1 | > 100 µM (inactive) |  | > 100 µM (inactive) | > 100 µM (inactive) | 72.8 µM (inactive) | > 100 µM (inactive) | > 100 µM (inactive) | > 100 µM (inactive) | 20 µM (inactive) | > 100 µM (inactive) | 57.5 µM (inactive) | > 100 µM (inactive) | > 100 µM (inactive) | 88.3 µM (inactive) | > 100 µM (inactive) | 40.8 µM (inactive) | 21.5 µM (inactive) | > 100 µM (inactive) | > 100 µM (inactive)
CC(C)(C)OC(=O)NCCNC(=O)OCc1ccccc1 | > 100 µM (inactive) | > 100 µM (inactive) |  | > 100 µM (inactive) | > 100 µM (inactive) | > 100 µM (inactive) | > 100 µM (inactive) |  | > 100 µM (inactive) | > 100 µM (inactive) | > 100 µM (inactive) | > 100 µM (inactive) | > 100 µM (inactive) | > 100 µM (inactive) | > 100 µM (inactive) | > 100 µM (inactive) | > 100 µM (inactive) |  | > 100 µM (inactive)
CN1CCN(C(=O)CCC(=O)Nc2cc3c(c4ccccc24)-c2ccc4ccccc4c2C3)CC1 | 1.64 µM (inactive) | 1.63 µM (inactive) | 2.08 µM (inactive) | 1.74 µM (inactive) | 1.97 µM (inactive) | 1.45 µM (inactive) | 1.51 µM (inactive) | 2 µM (inactive) |  | 1.96 µM (inactive) | 1.6 µM (inactive) | 2.21 µM (inactive) | 1.96 µM (inactive) | 1.35 µM (inactive) | 1.79 µM (inactive) | 1.8 µM (inactive) | 1.7 µM (inactive) | 1.77 µM (inactive) | 1.79 µM (inactive)
CC/C=C/C[C@H](O)[C@H]1C[C@H]2O[C@H](CC(=O)OC)C[C@H]2O1 | > 100 µM (inactive) | > 100 µM (inactive) | > 100 µM (inactive) |  | > 100 µM (inactive) | > 100 µM (inactive) | > 100 µM (inactive) | > 100 µM (inactive) | > 100 µM (inactive) | > 100 µM (inactive) | > 100 µM (inactive) | > 100 µM (inactive) | > 100 µM (inactive) | > 100 µM (inactive) | > 100 µM (inactive) | > 100 µM (inactive) | > 100 µM (inactive) | > 100 µM (inactive) | > 100 µM (inactive)
O=C(NCCCNCCCCNCCCNC(=O)C(F)(F)F)C(F)(F)F | > 100 µM (inactive) | > 100 µM (inactive) | > 100 µM (inactive) | > 100 µM (inactive) | > 100 µM (inactive) | > 100 µM (inactive) | > 100 µM (inactive) | 46.1 µM (inactive) | > 100 µM (inactive) | > 100 µM (inactive) | > 100 µM (inactive) | > 100 µM (inactive) | > 100 µM (inactive) | > 100 µM (inactive) | > 100 µM (inactive) | > 100 µM (inactive) | > 100 µM (inactive) | > 100 µM (inactive) | 
Cc1c(/N=N/c2ccccc2)c(C)n(C2OC(CO)C(O)C(O)C2O)c(=S)c1C#N (configuration not stated) | 24 µM (inactive) |  | 22.5 µM (inactive) | 33.2 µM (inactive) | 27.3 µM (inactive) | 25.6 µM (inactive) | 13.1 µM (inactive) | 34.1 µM (inactive) | 42.2 µM (inactive) | 40.2 µM (inactive) | 34 µM (inactive) | 42.4 µM (inactive) | 35.5 µM (inactive) | 19.9 µM (inactive) | 32.7 µM (inactive) | 17 µM (inactive) | 1.15 µM (inactive) | 22.6 µM (inactive) | 21.4 µM (inactive)
CC(C)(C)c1cc(/C=C2/NC(=O)NC2=O)cc(C(C)(C)C)c1O | 7.46 µM (inactive) | 12 µM (inactive) | 11.9 µM (inactive) | 16 µM (inactive) | 15 µM (inactive) |  | 17.3 µM (inactive) | 10.8 µM (inactive) | 12.3 µM (inactive) | 11.4 µM (inactive) | 16.8 µM (inactive) | 14.1 µM (inactive) |  | 13.7 µM (inactive) | 17.5 µM (inactive) | 14.3 µM (inactive) | 16.5 µM (inactive) | 15.8 µM (inactive) | 12.8 µM (inactive)
O=C(O)c1nc2cc(Cl)ccc2[nH]c1=O | > 100 µM (inactive) | > 100 µM (inactive) | > 100 µM (inactive) | > 100 µM (inactive) | > 100 µM (inactive) | > 100 µM (inactive) | > 100 µM (inactive) | > 100 µM (inactive) |  | > 100 µM (inactive) | > 100 µM (inactive) | > 100 µM (inactive) | > 100 µM (inactive) | > 100 µM (inactive) | > 100 µM (inactive) | > 100 µM (inactive) | > 100 µM (inactive) | > 100 µM (inactive) | > 100 µM (inactive)
CC1(C)C(=O)C(C)(C)C12SSC1(S2)C(C)(C)C(=O)C1(C)C | 84.5 µM (inactive) |  |  | > 100 µM (inactive) | > 100 µM (inactive) | > 100 µM (inactive) | > 100 µM (inactive) | 2.41 µM (inactive) | > 100 µM (inactive) | 65.9 µM (inactive) | > 100 µM (inactive) | 77.1 µM (inactive) | 64.9 µM (inactive) | > 100 µM (inactive) | > 100 µM (inactive) | > 100 µM (inactive) | > 100 µM (inactive) | > 100 µM (inactive) | > 100 µM (inactive)
Cc1ccc2ccc(=O)oc2c1 | > 100 µM (inactive) | > 100 µM (inactive) | > 100 µM (inactive) | > 100 µM (inactive) | > 100 µM (inactive) | > 100 µM (inactive) | > 100 µM (inactive) | > 100 µM (inactive) | > 100 µM (inactive) | > 100 µM (inactive) |  | > 100 µM (inactive) | > 100 µM (inactive) | > 100 µM (inactive) | > 100 µM (inactive) | > 100 µM (inactive) | 74.5 µM (inactive) | > 100 µM (inactive) | > 100 µM (inactive)
CN(C)/C=C/c1ccnc2c1C(=O)c1ccccc1C2=O | 8 µM (inactive) | 8.51 µM (inactive) | 16.5 µM (inactive) | 2.25 µM (inactive) | 2.48 µM (inactive) | 1.92 µM (inactive) | 1.35 µM (inactive) | 10.9 µM (inactive) | 5.33 µM (inactive) | 3.48 µM (inactive) | 44 µM (inactive) | 19 µM (inactive) | 8.99 µM (inactive) | 3.59 µM (inactive) | 2.48 µM (inactive) | 13.6 µM (inactive) | 1.38 µM (inactive) | 2.79 µM (inactive) | 
COc1ccc(/C=C/C(=O)c2cc(CN(C)C)c(O)c(CN(C)C)c2)cc1 | 23.9 µM (inactive) | 20.5 µM (inactive) | 35.2 µM (inactive) | 16.5 µM (inactive) | 46.9 µM (inactive) |  | 44 µM (inactive) | 22.9 µM (inactive) | 19 µM (inactive) | 21.8 µM (inactive) |  | 33.1 µM (inactive) | 27.6 µM (inactive) | 27.9 µM (inactive) | 54.2 µM (inactive) | 75.9 µM (inactive) |  | 14.2 µM (inactive) | 31.9 µM (inactive)
NCc1ccc(C(=O)O)cc1 [AMINOMETHYLBENZOIC ACID] | > 100 µM (inactive) | > 100 µM (inactive) |  | > 100 µM (inactive) | > 100 µM (inactive) | > 100 µM (inactive) | > 100 µM (inactive) | > 100 µM (inactive) |  |  |  | > 100 µM (inactive) | > 100 µM (inactive) | > 100 µM (inactive) | > 100 µM (inactive) | > 100 µM (inactive) | > 100 µM (inactive) | > 100 µM (inactive) | > 100 µM (inactive)
